# Earlier results, collected in EP0743854B1, “ANTI-TUMOUR MEDICAL P[…] THE BASIS OF C[…] THE METHOD OF ITS PRODUCTION” (PLIVA, pharmaceutical industry incorporated, priority 1994, dated 1995).
# Conditions: lyophylized injection dissolved in water and other aqueous solutions (sodium chloride, glucose, dextrose)
smiles,measurement,value
"N.N.O=C([O-])C1(C(=O)[O-])CCC1.[Pt+2] [carboplatin, cis-diammine-1,1-cyclobutanedicarboxylate platinum (II)]",stability of solution,"stable and therefore therapeutically useful for only few hours, at most few days under lower temperature"
